Test results published in patent US20230346831A1, “METHODS FOR TREATING […] USING LOW DOSE CARBON MONOXIDE” (priority 2020, published 2023).

What was measured:
Format in all cases: cell-based, human
MDA-MB-231 cells = test: in vitro transwell migration assay; conditions: 16 hours
Source text: MDA-MB-231/TGL cell lines was obtained from Dr. Joan Massagué (Minn, et al, J. Clin. Invest., 115:(1), 44-55 (2005)). CM cell line was obtained from Dr. Paolo Pozzilli (S. Kobayashi et al., Oncogenesis 8, 16 (2019)). MCF7 breast cancer cells and 8988T pancreatic cancer cells were infected with viruses carrying thymidine kinase/green fluorescent protein/luciferase fusion reporter (TGL), which was obtained from Drs. Inna Serganova and Ronald Blasberg (V. Ponomarev et al., European journal of nuclear medicine and molecular imaging 31, 740-751 (2004)). GFP-positive MCF7/TGL and 8999T/TGL cells were enriched by fluorescence-activated cell sorting. H1975, lung adenocarcinoma cell line, was obtained from ATCC (Manassas, VA). […]
6.5 mm Transwell with 8.0 µm Pore Polycarbonate Membrane Insert (Corning, NY, Cat. No. 3422) was used for the cell migration assay (FIG. 1J). After 16 hours of incubation, cells migrated to the opposite side of the upper chambers were fixed with 4% paraformaldehyde, stained with 0.2% crystal violet for 30 min and counted in five fields under × 20 magnification. […] The optical density was measured at 595 nm (OD595). […]
To examine whether CO has an effect on tumor cell migration, in vitro transwell migration assays were performed. […] Cell migration through the transwell membrane along a serum gradient (Table 1) after 16 hours in the presence or absence of 250 ppm CO were measured. […]

FLVCR1 = test: expression of heme exporter; conditions: MCF7/TGL and MDA-MB-231/TGL cells; with or without 250 ppm CO
Source text: To investigate how CO reduces heme levels, whether CO decreased the transportation of heme into the cytosol was examined. […] Furthermore, heme oxygenases (HO-1, HO-2, and HO-3) cleave heme into 3 products: CO, ferrous ions (Fe2+), and biliverdin. […] So, whether there was an increase of HO-1 expression by low-dose CO treatment that could contribute to heme degradation was examined. […] Likewise, changes in protein levels of Bach 1 (a physiological repressor of HO-1 and a pro-metastatic transcription factor, whose degradation is reported to be mediated by heme in Nrf2-mutated lung cancer) was not detected (FIG. 4E). […] Taken together, CO decreased heme importers to lower intracellular heme levels, which inhibited cancer cell migration.

Bach 1 = test: Western blot analysis; conditions: two breast cancer cell lines (MCF7, MDA-MB-231); 250 ppm CO
Method: (§1) 1.5 × 10^6 cells were seeded in 6-cm cell culture plates with DMEM containing 10% FBS, 0.2 mM L-glutamine and 1% penicillin/streptomycin. Additionally, MCF7/TGL/pQ was cultured in media containing 0.5 µgml^-1 puromycin and 25 mM HEPES. After 16 hours of incubation, cells were lysed with RIPA buffer (0.1% SDS, 1% TritonX-100, 0.5% sodium deoxycholate, 25 mM Tris pH 8.0, 150 mM NaCl, and 1 mM EDTA) supplemented with a protease inhibitor mixture and PhosSTOP (Roche, Basel, Switzerland). Proteins were quantified with Bradford assay (Bio-Rad, Hercules CA). Equal amounts of proteins were separated with SDS-PAGE and transferred to nitrocellulose membranes. […] Protein bands were visualized by enhanced chemical luminescence (Pierce, Dallas, TX).
(§2) To investigate how CO reduces heme levels, whether CO decreased the transportation of heme into the cytosol was examined. […] Likewise, changes in protein levels of Bach 1 (a physiological repressor of HO-1 and a pro-metastatic transcription factor, whose degradation is reported to be mediated by heme in Nrf2-mutated lung cancer) was not detected (FIG. 4E). […]

HO-1 = test: Western blot analysis; conditions: two breast cancer cell lines (MCF7, MDA-MB-231); 250 ppm CO
Method: as §1, §2

Row | Compound | cell migration inhibited by 250 ppm CO (reversal by hemin) (MDA-MB-231 cells; MDA-MB-231/TGL cells, 30 µM hemin in upper and lower chambers + 250 ppm CO) | FLVCR1 (heme exporter) expression (FLVCR1) | changes in protein levels of Bach 1 (Bach 1) | increase of HO-1 expression (HO-1) | cell migration through the transwell membrane (MDA-MB-231 cells; MDA-MB-231 cells, 250 ppm CO, serum gradient, vs control air)
1 | Hemin [reference compound] | significantly reversed | – | – | – | –
2 | [C-]#[O+] [CO, Carbon monoxide] | – | no significant/consistent changes | not detected | not detected | significantly reduced
